Here are results for six compounds from publication PMC9520749, “Novel angiotensin-converting enzyme and pancreatic lipase oligopeptide inhibitors from fermented rice bran” (Frontiers in Nutrition, 2022).

One may read the inhibition as the change of the read-out against control, counted positive when it falls. One may read the IC50 as the point on the concentration scale where inhibition reaches its midpoint. The Ki is the dissociation constant of the complex between target and ligand, obtained from inhibition or displacement.

For assay [1], the target named is T1, pancreatic lipase (Sus scrofa, UniProt P00591).
T1 construct: purchased Sigma Co., St. Louis, Missouri, United States
T1 sequence (P00591 1-450): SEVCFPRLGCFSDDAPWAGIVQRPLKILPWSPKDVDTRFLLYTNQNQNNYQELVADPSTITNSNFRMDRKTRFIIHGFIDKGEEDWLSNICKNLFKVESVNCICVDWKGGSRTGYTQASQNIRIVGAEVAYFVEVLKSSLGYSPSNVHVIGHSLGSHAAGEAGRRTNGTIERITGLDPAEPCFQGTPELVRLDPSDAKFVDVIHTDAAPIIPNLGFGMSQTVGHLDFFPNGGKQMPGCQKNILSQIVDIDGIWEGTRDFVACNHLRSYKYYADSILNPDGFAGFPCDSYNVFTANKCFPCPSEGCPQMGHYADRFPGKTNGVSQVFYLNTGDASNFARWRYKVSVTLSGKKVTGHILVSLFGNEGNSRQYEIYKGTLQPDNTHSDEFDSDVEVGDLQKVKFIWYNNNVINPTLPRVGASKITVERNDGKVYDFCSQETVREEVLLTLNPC
As to conditions: cited from earlier work.

The target of assay [2] is T2, ACE (Homo sapiens, UniProt P12821).
T2 construct: purchased Sigma Co., St. Louis, Missouri, United States
Kind of assay: In vitro simulated gastrointestinal digestion, then ACE inhibition. The format is biochemical. The note with it: 1 mg/mL, read-out: inhibition rate against ACE. The protocol: (§1) According to the experimental method of Yu Fu et al. ([8]), with slight changes, 50 μL ACE (0.1 U/mL, prepared from borate buffer with pH 8.3 and 80 mM), 50 μL FAPGG (1 mM), and 100 μL borate buffer (80 mM, pH 8.3) were added to a 96-well plate. Then, 100 μL borate buffer was replaced with 1 mg/mL sample, which are three groups of parallel samples, and the initial absorbance values a1 and b1 were measured at 340 nm. Then, the plate was placed at 37°C and reacted for 30 min. The absorbance values a2 and b2 were measured at 340 nm (Multiskan GO, Thermo Scientific, Waltham, MA, USA). The absorbance value was incorporated into the following formula to calculate the inhibition rate of polypeptide against ACE activity:
(§2) Simulated GI digestion through an in vitro pepsin–pancreatin hydrolysis method was carried out ([23]). The oligopeptides GLLGY, HWP, and VYGF were re-dissolved (3% w/v in distilled water) and adjusted to pH 2.0 with 1 M HCl. Then, pepsin (4% weight as received/weight of protein in the powder) was added. The mixture was incubated at 37°C for 2 h. The pH was then adjusted to 5.3 with 0.9 M NaHCO3 solution and further to pH 7.5 with 1 M NaOH. Pancreatin was added (4% weight as received/weight of protein in the powder), and the mixture was further incubated at 37°C for 2 h. To terminate the digestion, the test tubes were kept in boiling water for 10 min. The gastric digests (GDs) and gastric-intestinal digests (GIDs) were obtained through centrifugation (8000 × g, 10 min, 4°C), and then, the supernatants were collected, lyophilized, sealed in plastic bags, and stored at 4°C until further analysis. The ACE and pancreatic lipase inhibitory activities of GDS and GID were measured at a concentration of 1 mg/mL, and the results were expressed as activity (%) relative to that without any treatment (control group, 100%). All determinations were made in triplicate.

The target of assay [3] is T2, ACE. As to the kind of experiment: ACE inhibitory activity of peptides (FAPGG substrate, absorbance 340 nm). The format is biochemical. The protocol: (§3) The polypeptide was synthesized by Hangzhou Dangang Biotechnology Co., Ltd (Hangzhou, China). Human ACE, N-[3-(2-furanyl) acryloyl]-l-phenylalanyl glycyl glycine (FAPGG), p-nitrophenyl butyrate (pNPB), and pancreatic lipase were purchased from Sigma Co., St. Louis, Missouri, United States.
as §1
(1) ACEinhibitionrate (%)=(A-B)/A×100
Where a1 and b1 are initial absorbance values of the blank and sample groups, respectively. a2 and b2 are absorbance values of the blank and sample groups after the reaction, respectively. A = a1–a2; B = b1–b2.

In assay [4] the target is T2, ACE. As to the kind of experiment: Inhibitory kinetic analysis of ACE (Lineweaver-Burk). The format is biochemical. As to conditions: sample 1 mg/mL, FAPGG 0.2-1 mM; read-out: inhibitory binding constant (Ki), ACE. The protocol:
(§4) The inhibition kinetics of oligopeptides GLLGY, HWP, and VYGF on ACE and pancreatic lipase were tested to determine their efficiencies. For the ACE inhibition test, the concentration of the samples GLLGY, HWP, and VYGF was 1 mg/mL, and the concentrations of the substrate FAPGG were 0.2, 0.4, 0.6, 0.8, and 1 mM. For the pancreatic lipase inhibition test, the sample HWP concentration was 1 mg/mL and the substrate pNPB concentrations were 1, 2, 3, and 5 mM. The initial velocity data were used to construct the Lineweaver–Burke plots to determine the enzyme Km (Michaelis constant), Vmax (maximum velocity), and Ki (inhibitory binding constant) ([8], [22]).

Assay [5] deals with T1, pancreatic lipase. Kind of assay: Pancreatic lipase inhibitory activity of peptides (pNPB substrate, absorbance 405 nm). The class given is biochemical. As to the method: as §3
(§5) According to the method of Magdalena mendoza-s á nchez ([1]). In the blank group, 100 μL of 0.1 M sodium phosphate buffer (pH 7.2), 50 μL pNPB (5 mM), and 50 μL pancreatic lipase (0.2 U/mL) were added to a 96-well plate. In the blank control group, 150 μL sodium phosphate buffer and 50 μL pNPB were added to the 96-well plate. In the sample group, 50 μL sodium phosphate buffer, 50 μL pNPB, 50 μL sample (1 mg/mL), and 50 μL pancreatic lipase were added to the 96-well plate. For the sample blank group, 100 μL sodium phosphate buffer, 50 μL pNPB, and 50 μL sample were added to the 96-well plate. At 37°C, the absorbance values A, B, C, and D were measured at 405 nm after 30 min of reaction. The absorbance values were incorporated into the following formula to calculate the inhibition rate of polypeptide against pancreatic lipase activity:
(2) Pancreaticlipaseinhibitionrate (%)=(1-C-D/A-B)×100
Where A, B, C, and D are absorbance values of the blank, blank control, sample, and sample blank groups, respectively.

For assay [6], the target named is T1, pancreatic lipase. As to the kind of experiment: In vitro simulated gastrointestinal digestion, then pancreatic lipase inhibition. The class given is biochemical. As to conditions: 1 mg/mL, read-out: inhibition rate against pancreatic lipase. The protocol: as §5, §2
Assay [7] addresses T1, pancreatic lipase. Kind of assay: Inhibitory kinetic analysis of pancreatic lipase (Lineweaver-Burk). The note with it: sample 1 mg/mL, pNPB 1-5 mM; read-out: inhibitory binding constant (Ki), pancreatic lipase. The format is biochemical. As to the method:
as §4

Read-outs that look alike come from different tables or passages of the source. Ends that are not written are not given here. Peptide text beside a SMILES is read from it.

T2 sequence (P12821 30-1306): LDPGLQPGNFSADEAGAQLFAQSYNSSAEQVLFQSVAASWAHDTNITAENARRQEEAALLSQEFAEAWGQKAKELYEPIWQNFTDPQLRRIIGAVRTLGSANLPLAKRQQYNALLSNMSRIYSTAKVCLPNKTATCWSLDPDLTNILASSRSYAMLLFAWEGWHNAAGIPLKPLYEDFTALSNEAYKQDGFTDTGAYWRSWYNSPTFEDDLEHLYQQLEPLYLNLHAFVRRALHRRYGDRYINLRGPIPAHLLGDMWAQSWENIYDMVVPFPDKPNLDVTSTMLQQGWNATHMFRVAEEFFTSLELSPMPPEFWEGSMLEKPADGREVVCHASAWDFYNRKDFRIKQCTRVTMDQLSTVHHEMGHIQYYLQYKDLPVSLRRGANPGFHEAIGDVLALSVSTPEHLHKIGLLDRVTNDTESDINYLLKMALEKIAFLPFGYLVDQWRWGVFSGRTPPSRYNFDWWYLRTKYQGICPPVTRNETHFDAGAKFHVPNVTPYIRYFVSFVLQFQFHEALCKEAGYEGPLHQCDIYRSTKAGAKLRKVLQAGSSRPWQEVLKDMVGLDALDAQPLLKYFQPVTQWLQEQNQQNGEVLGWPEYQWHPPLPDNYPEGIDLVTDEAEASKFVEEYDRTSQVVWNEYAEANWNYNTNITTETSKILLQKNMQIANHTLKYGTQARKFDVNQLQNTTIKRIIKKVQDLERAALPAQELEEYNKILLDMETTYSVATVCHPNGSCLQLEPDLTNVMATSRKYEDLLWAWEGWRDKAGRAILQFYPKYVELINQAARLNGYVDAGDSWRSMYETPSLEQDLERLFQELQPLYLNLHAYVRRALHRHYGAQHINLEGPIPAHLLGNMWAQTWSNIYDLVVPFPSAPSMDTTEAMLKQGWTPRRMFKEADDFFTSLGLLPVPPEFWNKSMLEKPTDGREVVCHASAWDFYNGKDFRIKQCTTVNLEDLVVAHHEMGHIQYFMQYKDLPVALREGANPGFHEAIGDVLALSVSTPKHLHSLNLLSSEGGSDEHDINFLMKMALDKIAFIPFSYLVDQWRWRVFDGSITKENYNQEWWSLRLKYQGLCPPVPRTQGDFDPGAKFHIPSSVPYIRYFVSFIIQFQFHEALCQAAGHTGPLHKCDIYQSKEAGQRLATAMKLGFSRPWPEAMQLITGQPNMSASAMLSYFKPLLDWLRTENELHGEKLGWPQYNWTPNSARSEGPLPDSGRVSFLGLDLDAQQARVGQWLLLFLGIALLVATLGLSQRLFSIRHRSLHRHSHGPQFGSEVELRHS

As for Leu-Pro, at pancreatic lipase [1] (peptide of bovine and camel casein hydrolysates), the “pancreatic lipase inhibitory activity” value is “exhibits pancreatic lipase inhibitory activity”.
In the case of VSTDVNIE [cocoa peptide], the “inhibitory effect on pancreatic lipase” value in the assay with pancreatic lipase [1] (cocoa peptides) is listed as “had inhibitory effect”.
On to GLLGY [GLLGY], for which the inhibition at 1000 µg/mL was 51.3% on ACE [2] (after GI digestion), 52.6% on ACE [2] (after gastric digestion) and 55.8% at ACE [2] (without GI digestion). Further, the half-inhibitory concentration (IC50) at ACE [3] is 1920 µM. In addition, the Ki at ACE [4] is 1570 µM.
On to `O=c1cc(-c2ccc(O)cc2)oc2cc(O)cc(O)c12` [apigenin], for which, on pancreatic lipase [1], the IC50 is 450 ± 30 µM and the “type of pancreatic lipase inhibition” value was “competitively inhibited”.
For the compound `N[C@@H](Cc1c[nH]cn1)C(=O)N[C@@H](Cc1c[nH]c2ccccc12)C(=O)N1CCC[C@H]1C(=O)O` [HWP] (H-His-Trp-Pro-OH), the inhibition at 1000 µg/mL at pancreatic lipase [5] (at 1 mg/mL, read-out: pancreatic lipase inhibition rate) was 20%; at pancreatic lipase [6] (after GI digestion), 18.4%; at pancreatic lipase [6] (after gastric digestion), 19.9%; at pancreatic lipase [6] (without GI digestion), 21.5%; at ACE [2] (after GI digestion), 53.6%; on ACE [2] (after gastric digestion) it was 54.4%. Further, on ACE [2] (without GI digestion), the inhibition at 1000 µg/mL was 57%. The IC50 against pancreatic lipase [5] (gradient test of concentration, Figure 1C) is 9010 µM; against ACE [3], 2280 µM. Besides, the Ki at pancreatic lipase [7] worked out at 2580 µM; at ACE [4] it was 1340 µM.
Regarding `CC(C)[C@H](N)C(=O)N[C@@H](Cc1ccc(O)cc1)C(=O)NCC(=O)N[C@@H](Cc1ccccc1)C(=O)O` [VYGF] (H-VYGF-OH), the inhibition at 1000 µg/mL at ACE [2] (after GI digestion) was 49.1%; at ACE [2] (after gastric digestion) it was 50.9%; at ACE [2] (without GI digestion) it was 54.8%. On ACE [3], this compound gave a concentration for half-maximal inhibition (IC50) of 2060 µM. For the same compound, on ACE [4], the Ki was 933 µM.
